This note sets out measurements from patent publication US12338256B2, “Aza-tetracyclic oxazepine compounds and uses thereof” (Genentech, Inc., priority 2022, dated 2025).

Assay type in all cases: cell-based
The test system of assay [1] is HPAC (homozygous mutant KRAS G12D human pancreatic cell line). The experiment in a line: KRAS 3D-Cell Proliferation Assay, HPAC (Example 503). The note with it: Homo sapiens, HPAC, 168 h, HPAC 3D culture, 7 days, CellTiter-Glo 3D; read-out: Prolif HPAC 3D ATP IC50. The method, boiled down:
(§1)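 3D culture, ultra-low attachment wells; RPMI-1640/10% FBS/2 mM L-glutamine. Overnight settle, then compound series, 0.3% DMSO final, 7 d, 37° C, 5% CO2. Readout: CellTiter-Glo 3D luminescence. % inhibition vs DMSO (0%) and 1 μM staurosporine (100%); IC50 via 4-parameter Hill.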

Assay [2] relates to H1975 (KRAS wild type human lung adenocarcinoma cell line). As to the kind of experiment: KRAS 3D-Cell Proliferation Assay, H1975 (Example 503). The following applies: Homo sapiens, NCI-H1975, 168 h, H1975 3D culture, 7 days, CellTiter-Glo 3D; read-out: Prolif H1975 3D ATP IC50. The method in brief: as §1
For assay [3], the system named is PC-9 (KRAS wild type human lung adenocarcinoma cell line). The experiment in a line: KRAS 3D-Cell Proliferation Assay, PC-9 (Example 503). The note with it: 168 h, PC-9 3D culture, 7 days, CellTiter-Glo 3D, read-out: Prolif PC9 3D ATP IC50. The procedure: Example 503: KRAS 3D-Cell Proliferation Assays. Cellular potencies of compounds are assessed by evaluating inhibition of proliferation in 3D cultures of homozygous mutant KRAS G12D human pancreatic cell lines (AsPC-1 and HPAC) as compared to a KRAS wild type human lung adenocarcinoma cell line (PC-9 and/or H1975). Cells are seeded into 384-well black round-bottom, ultra-low attachment assay plates in 50 uL cell growth medium (RPMI-1640 with 10% fetal bovine serum and 2 mM L-glutamine). After overnight incubation at 37° C. and 5% CO2, compounds solubilized in DMSO are added as dilution series to the wells in a total volume of 150 nL (0.3% DMSO final). The cells are incubated for 7 days at 37° C. and 5% CO2. Cell proliferation is quantitated by addition of 40 uL/well of CellTiter-GloÒ 3D (Promega), and the well contents are mixed 20× at high speed using liquid handling automation workstation (Bravo with 384-well head) and centrifuged at 1500 rpm for 2 minutes to eliminate bubbles. This reagent in combination with mechanical disruption releases the cellular ATP to promote activity in a luciferase-based enzyme/substrate chemiluminescent detection system. After a 30-minute incubation under ambient conditions with shaking and an additional 10 minutes without shaking, the luminescence is read on a plate reader (e.g., EnVision [PerkinElmer]). The results are normalized to percent inhibition based on the following control samples: DMSO (0% inhibition) and 1 μM staurosporine (100% inhibition). The normalized luminescence results are plotted against compound concentration, and the data are fit to a 4-parameter Hill equation to determine the IC50 values.

The test system of assay [4] is AsPC-1 (homozygous mutant KRAS G12D human pancreatic cell line). As to the kind of experiment: KRAS 3D-Cell Proliferation Assay, AsPC-1 (Example 503). The following applies: Homo sapiens, ASPC1, 168 h, AsPC-1 3D culture, 7 days, CellTiter-Glo 3D; read-out: Prolif AsPC-1 3D ATP IC50. The method, boiled down: as §1

SMILES strings stand for the structures. pIC50: −log10 of the molar value. Where only a bound is given, the exact number is not on record here.

With `C[C@@H]1Oc2nc(-c3cccc4cccc(Cl)c34)c(F)c3nc(OCC45CCN4CC(F)(F)C5)nc(c23)N2C[C@H]3CC[C@H](N3)[C@@H]12` (single isomer, unassigned) [Compound 21], the pIC50 is 6.16 in assay [1], 4.91 in assay [2] and 5.11 in assay [3].
Turning to `Cc1cc(N)nc(-c2nc3c4c(nc(OC[C@]56CCN5CC(F)(F)C6)nc4c2F)N2C[C@H]4CC[C@H](N4)[C@H]2[C@H](C)O3)c1C(F)(F)F` (single isomer, unassigned) [Compound 45], in assay [3], the negative logarithm of the IC50 (pIC50) is not above 4.70.
In the case of `CN1CCC2COc3nc(-c4cc(O)cc5cccc(F)c45)c(F)c4nc(OC[C@@]56CCCN5C[C@H](F)C6)nc(c34)N2CC1` (single isomer, unassigned) [Compound 49], the negative-log IC50 (pIC50) was 5.63 in assay [3] and not above 4.70 in assay [4].
On the same counts, the results for `Oc1cc(-c2nc3c4c(nc(OC[C@@]56CCCN5C[C@H](F)C6)nc4c2F)N2C[C@H]4CC[C@H](N4)[C@H]2CO3)c2c(F)cccc2c1` [Compound 1, 5-Fluoro-4-((5aS,6S,9R)-1-fluoro-12-(((2R,7aS)-2-fluorotetrahydro-1H-pyrrolizin-7a(5H)-yl)methoxy)-5a,6,7,8,9,10-hexahydro-5H-4-oxa-3,10a,11,13,14-pentaaza-6,9-methanonaphtho[1,8-ab]heptalen-2-yl)naphthalen-2-ol] are 4.77 and 6.65.
The matching figures for `Fc1c(-c2cccc3cccc(Cl)c23)nc2c3c(nc(OC[C@@]45CCCN4C[C@H](F)C5)nc13)N1C[C@H]3CC[C@H](N3)[C@H]1CO2` [Compound 2, (5aS,6S,9R)-2-(8-chloronaphthalen-1-yl)-1-fluoro-12-(((2R,7aS)-2-fluorotetrahydro-1H-pyrrolizin-7a(5H)-yl)methoxy)-5a,6,7,9,10-hexahydro-5H-4-oxa-3,10a,11,13,14-pentaaza-6,9-methanonaphtho[1,8-ab]heptalene]: 5.33 and 6.25.
The matching figures for `Cn1ncc2ccc(F)c(-c3nc4c5c(nc(OC[C@@]67CCCN6C[C@H](F)C7)nc5c3F)N3C[C@H]5CC[C@H](N5)[C@H]3CO4)c21` [Compound 4, (5aS,6S,9R)-1-fluoro-2-(6-fluoro-1-methyl-1H-indazol-7-yl)-12-(((2R,7aS)-2-fluorotetrahydro-1H-pyrrolizin-7a(5H)-yl)methoxy)-5a,6,7,8,9,10-hexahydro-5H-4-oxa-3,10a,11,13,14-pentaaza-6,9-methanonaphtho[1,8-ab]heptalene]: 4.88 and 5.01.
As to `C[C@@H]1Oc2nc(-c3cccc(N)c3F)c(F)c3nc(OC[C@@]45CCCN4C[C@H](F)C5)nc(c23)N2C[C@H]3CC[C@H](N3)[C@@H]12` [Compound 12, 2-fluoro-3-((5S,5aS,6S,9R)-1-fluoro-12-(((2R,7aS)-2-fluorotetrahydro-1H-pyrrolizin-7a(5H)-yl)methoxy)-5-methyl-5a,6,7,8,9,10-hexahydro-5H-4-oxa-3,10a,11,13,14-pentaaza-6,9-methanonaphtho[1,8-ab]heptalen-2-yl)aniline], the pIC50 in assay [3] is 4.86; in assay [4] it was 4.78.
Regarding `Cc1cc(-c2nc3c4c(nc(OC[C@@]56CCCN5C[C@H](F)C6)nc4c2F)N2C[C@H]4CC[C@H](N4)[C@H]2[C@H](C)O3)cc(N)c1F` [Compound 13, 2-fluoro-5-((5S,5aS,6S,9R)-1-fluoro-12-(((2R,7aS)-2-fluorotetrahydro-1H-pyrrolizin-7a(5H)-yl)methoxy)-5-methyl-5a,6,7,8,9,10-hexahydro-5H-4-oxa-3,10a,11,13,14-pentaaza-6,9-methanonaphtho[1,8-ab]heptalen-2-yl)-3-methylaniline], the negative-log IC50 (pIC50) was 5.45 in assay [3] and 5.73 in assay [4].
As for `Cc1cc(N)c(F)c(-c2nc3c4c(nc(OC[C@@]56CCN5CC(F)(F)C6)nc4c2F)N2C[C@H]4CC[C@H](N4)[C@H]2[C@H](C)O3)c1C(F)(F)F` [Compound 92, 3-((5S,5aS,6S,9R)-12-(((S)-3,3-Difluoro-1-azabicyclo[3.2.0]heptan-5-yl)methoxy)-1-fluoro-5-methyl-5a,6,7,8,9,10-hexahydro-5H-4-oxa-3,10a,11,13,14-pentaaza-6,9-methanonaphtho[1,8-ab]heptalen-2-yl)-2-fluoro-5-methyl-4-(trifluoromethyl)aniline], the pIC50 in assay [3] is 4.95.
Take `Cc1c(F)c(N)cc(-c2nc3c4c(nc(OC[C@@]56CCCN5C[C@H](F)C6)nc4c2F)N2C[C@H]4CC[C@H](N4)[C@@H]2[C@@H](C(F)(F)F)O3)c1C(F)(F)F` [Compound 248, 2-Fluoro-5-((5S,5aR,6S,9R)-1-fluoro-12-(((2R,7aS)-2-fluorotetrahydro-1H-pyrrolizin-7a(5H)-yl)methoxy)-5-(trifluoromethyl)-5a,6,7,8,9,10-hexahydro-5H-4-oxa-3,10a,11,13,14-pentaaza-6,9-methanonaphtho[1,8-ab]heptalene-2-yl)-3-methyl-4-(trifluoromethyl)aniline]: the pIC50 in assay [1] is 7.90; in assay [2] it was 6.61; in assay [4], 7.55.
Turning to `Cc1c(F)c(N)cc(-c2nc3c4c(nc(OCC5(CN6CCOCC6)CC5)nc4c2F)N2C[C@H]4CC[C@H](N4)[C@H]2[C@H](C(F)(F)F)O3)c1C(F)(F)F` [Compound 249, 2-Fluoro-5-((5R,5aS,6S,9R)-1-fluoro-12-((1-(morpholinomethyl)cyclopropyl)methoxy)-5-(trifluoromethyl)-5a,6,7,8,9,10-hexahydro-5H-4-oxa-3,10a,11,13,14-pentaaza-6,9-methanonaphtho[1,8-ab]heptalene-2-yl)-3-methyl-4-(trifluoromethyl)aniline], the pIC50 in assay [1] is 8.86; in assay [2] it was 6.38; in assay [4], 8.96.
Regarding `C#Cc1cccc2cc(O)cc(-c3nc4c5c(nc(OC[C@@]67CCCN6C[C@H](F)C7)nc5c3F)N3C[C@H]5CC[C@H](N5)[C@H]3[C@H](C(F)(F)F)O4)c12` [Compound 251], the negative logarithm of the IC50 (pIC50) in assay [1] was 8.64; in assay [2], 6.63; in assay [4], 8.72.
On the same counts, the results for `Cc1nc(N)cc(-c2nc3c4c(nc(OC[C@@H]5CC[C@H]6COCCN65)nc4c2F)N2C[C@H]4CC[C@H](N4)[C@H]2[C@H](C(F)(F)F)O3)c1C(F)(F)F` [Compound 253, 4-((5R,5aS,6S,9R)-1-Fluoro-12-(((6S,8aS)-hexahydro-1H-pyrrolo[2,1-c][1,4]oxazin-6-yl)methoxy)-5-(trifluoromethyl)-5a,6,7,8,9,10-hexahydro-5H-4-oxa-3,10a,11,13,14-pentaaza-6,9-methanonaphtho[1,8-ab]heptalene-2-yl)-6-methyl-5-(trifluoromethyl)pyridin-2-amine] are 7.70, 5.29 and 7.19.
The matching figures for `Cc1nc(N)cc(-c2nc3c4c(nc(OC[C@@]56CCCN5CC5(CC5(F)F)C6)nc4c2F)N2C[C@H]4CC[C@H](N4)[C@H]2[C@H](C(F)(F)F)O3)c1C(F)(F)F` (stereo partly drawn) [Compound 254, 4-((5R,5aS,6S,9R)-12-(((7a′S)-2,2-Difluorodihydro-1′H,3′H-spiro[cyclopropane-1,2′-pyrrolizin]-7a′(5′H)-yl)methoxy)-1-fluoro-5-(trifluoromethyl)-5a,6,7,8,9,10-hexahydro-5H-4-oxa-3,10a,11,13,14-pentaaza[6,9]methanonaphtho[1,8-ab]heptalene-2-yl)-6-methyl-5-(trifluoromethyl)pyridin-2-amine]: 8.73, 6.86 and 8.60.
For `Cc1nc(N)c(F)c(-c2nc3c4c(nc(OC[C@@]56CCCN5CC5(CC5(F)F)C6)nc4c2F)N2C[C@H]4CC[C@H](N4)[C@H]2[C@H](C(F)(F)F)O3)c1C(F)(F)F` (stereo partly drawn) [Compound 257, 4-((5R,5aS,6S,9R)-12-(((7a′S)-2,2-Difluorodihydro-1′H,3′H-spiro[cyclopropane-1,2′-pyrrolizin]-7a′(5′H)-yl)methoxy)-1-fluoro-5-(trifluoromethyl)-5a,6,7,8,9,10-hexahydro-5H-4-oxa-3,10a,11,13,14-pentaaza[6,9]methanonaphtho[1,8-ab]heptalen-2-yl)-3-fluoro-6-methyl-5-(trifluoromethyl)pyridin-2-amine], the pIC50 in assay [1] is 8.08; in assay [2], 5.30; in assay [4], 8.10.
